Experimental data reported in PMC9851200, “Multiparameter phenotypic screening for endogenous TFEB and TFE3 translocation identifies novel chemical series modulating lysosome function” (Autophagy, 2022).

Key:
Type in all cases: binding
[1] = target: kinases (KINOMEscan panel) (Homo sapiens, UniProt Q9Y243); conditions: kinase AKT3; NEW KINOMEscan
[2] = target: T1, kinases (KINOMEscan panel) (Homo sapiens, UniProt O15197); conditions: kinase EPHB6; NEW KINOMEscan
T1 sequence (O15197 32-1021): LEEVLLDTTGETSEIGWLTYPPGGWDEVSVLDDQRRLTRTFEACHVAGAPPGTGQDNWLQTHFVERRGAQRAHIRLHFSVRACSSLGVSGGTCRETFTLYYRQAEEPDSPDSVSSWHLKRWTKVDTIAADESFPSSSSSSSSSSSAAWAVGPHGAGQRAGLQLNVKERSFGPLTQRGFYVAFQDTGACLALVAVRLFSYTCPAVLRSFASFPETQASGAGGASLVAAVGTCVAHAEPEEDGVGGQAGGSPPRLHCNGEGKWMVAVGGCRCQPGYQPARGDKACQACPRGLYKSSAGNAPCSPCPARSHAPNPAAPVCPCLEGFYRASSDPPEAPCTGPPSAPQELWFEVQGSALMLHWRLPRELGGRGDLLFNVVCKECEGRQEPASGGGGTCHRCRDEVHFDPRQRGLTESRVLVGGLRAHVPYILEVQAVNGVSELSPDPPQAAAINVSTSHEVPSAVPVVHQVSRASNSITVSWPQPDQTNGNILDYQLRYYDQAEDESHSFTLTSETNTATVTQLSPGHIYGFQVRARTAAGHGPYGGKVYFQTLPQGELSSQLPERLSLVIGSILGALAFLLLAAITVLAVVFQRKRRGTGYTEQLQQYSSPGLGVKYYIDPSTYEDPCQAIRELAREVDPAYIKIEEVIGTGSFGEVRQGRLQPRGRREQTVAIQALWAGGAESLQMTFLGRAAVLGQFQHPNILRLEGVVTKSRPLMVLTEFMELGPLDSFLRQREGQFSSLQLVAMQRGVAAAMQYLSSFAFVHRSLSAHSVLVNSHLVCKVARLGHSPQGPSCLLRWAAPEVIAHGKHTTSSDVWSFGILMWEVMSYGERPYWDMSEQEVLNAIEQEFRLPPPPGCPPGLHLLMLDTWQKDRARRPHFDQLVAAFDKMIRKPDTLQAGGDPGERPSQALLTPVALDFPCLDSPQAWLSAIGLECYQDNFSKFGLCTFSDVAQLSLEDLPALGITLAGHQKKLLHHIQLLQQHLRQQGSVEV

[3] = target: T2, kinases (KINOMEscan panel) (Homo sapiens, UniProt P51955); conditions: kinase NEK2; NEW KINOMEscan
T2 sequence (P51955 1-445): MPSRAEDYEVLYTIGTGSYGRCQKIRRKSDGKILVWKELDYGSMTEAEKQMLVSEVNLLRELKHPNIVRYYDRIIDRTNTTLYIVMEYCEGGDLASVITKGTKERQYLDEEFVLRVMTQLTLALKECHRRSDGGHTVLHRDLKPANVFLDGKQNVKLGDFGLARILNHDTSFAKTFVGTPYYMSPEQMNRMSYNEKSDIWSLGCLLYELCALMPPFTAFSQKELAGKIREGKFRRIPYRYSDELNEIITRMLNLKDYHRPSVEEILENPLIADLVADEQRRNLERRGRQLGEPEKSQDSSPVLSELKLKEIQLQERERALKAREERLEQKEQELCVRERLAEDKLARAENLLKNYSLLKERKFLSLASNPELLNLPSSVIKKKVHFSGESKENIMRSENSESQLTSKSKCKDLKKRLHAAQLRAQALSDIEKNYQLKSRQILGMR

[4] = target: kinases (KINOMEscan panel) (Homo sapiens, UniProt Q96RR4); conditions: CAMKK2; NEW KINOMEscan
[5] = target: T3, kinases (KINOMEscan panel) (Homo sapiens, UniProt Q8TD19); conditions: NEK9; NEW KINOMEscan
T3 sequence (Q8TD19 1-979): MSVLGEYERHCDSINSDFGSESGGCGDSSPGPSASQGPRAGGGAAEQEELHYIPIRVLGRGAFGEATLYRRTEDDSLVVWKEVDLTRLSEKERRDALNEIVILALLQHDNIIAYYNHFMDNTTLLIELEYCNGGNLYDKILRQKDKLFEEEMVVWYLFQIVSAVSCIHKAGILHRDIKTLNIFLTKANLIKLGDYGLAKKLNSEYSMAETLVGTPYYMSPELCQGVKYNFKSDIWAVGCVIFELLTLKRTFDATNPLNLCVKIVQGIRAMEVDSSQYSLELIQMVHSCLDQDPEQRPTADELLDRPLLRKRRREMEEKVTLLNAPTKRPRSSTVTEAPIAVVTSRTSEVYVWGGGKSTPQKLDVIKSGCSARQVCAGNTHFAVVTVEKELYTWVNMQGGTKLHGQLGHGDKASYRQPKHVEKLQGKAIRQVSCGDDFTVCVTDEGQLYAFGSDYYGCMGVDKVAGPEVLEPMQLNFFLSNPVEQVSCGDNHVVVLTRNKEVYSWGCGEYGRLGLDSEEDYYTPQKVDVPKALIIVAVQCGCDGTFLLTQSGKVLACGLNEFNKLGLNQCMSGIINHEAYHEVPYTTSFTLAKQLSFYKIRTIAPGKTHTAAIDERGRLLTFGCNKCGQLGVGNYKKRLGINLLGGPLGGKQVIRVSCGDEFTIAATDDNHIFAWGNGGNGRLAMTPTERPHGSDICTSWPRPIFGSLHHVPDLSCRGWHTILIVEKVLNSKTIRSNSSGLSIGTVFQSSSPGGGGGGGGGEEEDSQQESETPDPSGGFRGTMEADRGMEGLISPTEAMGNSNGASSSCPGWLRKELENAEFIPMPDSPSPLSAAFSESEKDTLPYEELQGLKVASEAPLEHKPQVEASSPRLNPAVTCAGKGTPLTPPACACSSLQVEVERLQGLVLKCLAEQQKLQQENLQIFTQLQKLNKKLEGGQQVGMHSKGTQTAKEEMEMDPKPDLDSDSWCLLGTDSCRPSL

[6] = target: T4, kinases (KINOMEscan panel) (Homo sapiens, UniProt Q9BXA7); conditions: kinase TSSK1B; NEW KINOMEscan
T4 sequence (Q9BXA7 1-367): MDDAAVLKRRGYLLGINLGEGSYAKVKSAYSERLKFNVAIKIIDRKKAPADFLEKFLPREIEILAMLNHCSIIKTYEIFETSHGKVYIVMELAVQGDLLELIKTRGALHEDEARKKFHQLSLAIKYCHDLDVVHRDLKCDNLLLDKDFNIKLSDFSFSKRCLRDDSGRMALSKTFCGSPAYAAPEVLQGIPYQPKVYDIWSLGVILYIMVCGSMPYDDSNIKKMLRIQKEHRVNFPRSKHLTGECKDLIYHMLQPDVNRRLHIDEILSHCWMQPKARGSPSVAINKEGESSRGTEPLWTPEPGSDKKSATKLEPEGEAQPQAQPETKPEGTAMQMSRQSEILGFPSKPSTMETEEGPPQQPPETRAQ

Sequence of kinases (KINOMEscan panel) (Homo sapiens, UniProt Q9Y243) (Q9Y243 whole entry): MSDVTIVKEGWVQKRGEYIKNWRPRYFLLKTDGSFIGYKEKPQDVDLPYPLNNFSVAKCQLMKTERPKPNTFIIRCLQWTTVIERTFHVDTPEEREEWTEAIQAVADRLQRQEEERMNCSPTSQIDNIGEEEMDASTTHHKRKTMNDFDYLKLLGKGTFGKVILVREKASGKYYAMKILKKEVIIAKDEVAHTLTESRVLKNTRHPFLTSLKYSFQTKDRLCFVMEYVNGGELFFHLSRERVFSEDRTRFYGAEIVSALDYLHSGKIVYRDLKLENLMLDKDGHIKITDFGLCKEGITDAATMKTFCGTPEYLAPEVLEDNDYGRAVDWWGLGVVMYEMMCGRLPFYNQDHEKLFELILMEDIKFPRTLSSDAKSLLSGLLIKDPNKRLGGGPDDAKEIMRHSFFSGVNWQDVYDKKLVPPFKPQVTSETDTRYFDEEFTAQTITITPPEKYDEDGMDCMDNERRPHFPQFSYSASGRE
Sequence of kinases (KINOMEscan panel) (Homo sapiens, UniProt Q96RR4) (Q96RR4 whole entry): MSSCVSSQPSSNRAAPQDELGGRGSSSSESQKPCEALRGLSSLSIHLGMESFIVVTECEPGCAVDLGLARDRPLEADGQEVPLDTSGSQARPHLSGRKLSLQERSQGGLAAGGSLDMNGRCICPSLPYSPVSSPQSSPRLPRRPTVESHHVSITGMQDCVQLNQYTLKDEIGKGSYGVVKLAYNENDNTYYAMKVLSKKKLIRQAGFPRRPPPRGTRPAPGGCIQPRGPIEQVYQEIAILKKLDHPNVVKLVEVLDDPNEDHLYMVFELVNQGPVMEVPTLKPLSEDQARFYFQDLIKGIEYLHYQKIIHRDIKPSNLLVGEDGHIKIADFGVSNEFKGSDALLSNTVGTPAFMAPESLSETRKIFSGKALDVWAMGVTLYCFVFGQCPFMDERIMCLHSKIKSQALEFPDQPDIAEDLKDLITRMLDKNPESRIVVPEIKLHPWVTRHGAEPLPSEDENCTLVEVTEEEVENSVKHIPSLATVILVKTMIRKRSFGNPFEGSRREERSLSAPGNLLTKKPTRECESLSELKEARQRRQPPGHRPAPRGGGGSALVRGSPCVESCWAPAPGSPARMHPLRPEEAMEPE

Cc1cccc(-c2nc(Nc3ccc4nn(C)cc4c3)c3ccccc3n2)n1 [NK167]
KINOMEscan AKT3 [1]: 0 | KINOMEscan EPHB6 [2]: 0 | KINOMEscan NEK2 [3]: 0 | KINOMEscan CAMKK2 [4]: 6 | KINOMEscan NEK9 [5]: 0 | KINOMEscan TSSK1B [6]: 15

Cc1cccc(-c2nc(N(C)c3ccc4ncsc4c3)c3ccccc3n2)n1 [NK-161]
KINOMEscan AKT3 [1]: 0 | KINOMEscan EPHB6 [2]: 0 | KINOMEscan NEK2 [3]: 1 | KINOMEscan CAMKK2 [4]: 9 | KINOMEscan NEK9 [5]: 0 | KINOMEscan TSSK1B [6]: 11
